Where “and” joins values, the source holds several entries; their conditions need not be identical. Identical values can stand only once. Toxic doses and inconclusive results are not listed.
Tested on: CD2F1 mice, ip Colon 26 adenocarcinoma, median survival T/C
Experiment: NCI In Vivo Anticancer Drug Screen. Data for tumor model Colon 26 Adenocarcinoma (intraperitoneal) in CD2F1 (CDF1) mice
Conditions: endpoint: median survival time, higher = longer survival
Procedure: The antitumor activity of compounds was measured in mice bearing transplantable tumors. Survival or tumor size were measured and the results are expressed as the measurement made in the treated group (T) divided by the measurement made in the vehicle treated control group (C). The tumor model used in this assay is Colon 26 Adenocarcinoma (intraperitoneal) in CD2F1 (CDF1) mice

CN1C(=O)NC(c2ccc(Cl)cc2)(c2ccc(Cl)cc2)C1=O
T/C (dose: 12.5 mg/kg/injection, schedule: Q04DX002 (ip), vehicle: distilled water + Tween-80): 106 % of control | T/C (dose: 12.5 mg/kg/injection, schedule: Q04DX002 (ip), vehicle: saline with Tween-80): 105 % of control | T/C (dose: 25.0 mg/kg/injection, schedule: Q04DX002 (ip), vehicle: distilled water + Tween-80): 100 % of control | T/C (dose: 25.0 mg/kg/injection, schedule: Q04DX002 (ip), vehicle: saline with Tween-80): 111 % of control | T/C (dose: 50.0 mg/kg/injection, schedule: Q04DX002 (ip), vehicle: distilled water + Tween-80): 114 % of control | T/C (dose: 50.0 mg/kg/injection, schedule: Q04DX002 (ip), vehicle: saline with Tween-80): 97 % of control | T/C (dose: 100.0 mg/kg/injection, schedule: Q04DX002 (ip), vehicle: saline with Tween-80): 102 % of control | T/C (dose: 200.0 mg/kg/injection, schedule: Q04DX002 (ip), vehicle: saline with Tween-80): 91 % of control | T/C (dose: 400.0 mg/kg/injection, schedule: Q04DX002 (ip), vehicle: saline with Tween-80): 91 % of control

CC(C)CCC[C@@H](C)[C@H]1CC[C@H]2[C@@H]3CC=C4C[C@@H](OC(=O)Cc5ccc(N(CCCl)CCCl)cc5)CC[C@]4(C)[C@H]3CC[C@]12C
T/C (dose: 50.0 mg/kg/injection, schedule: Q04DX002 (ip), vehicle: Klucel (hydroxypropylcellulose) (HPC)): 91 % of control | T/C (dose: 100.0 mg/kg/injection, schedule: Q04DX002 (ip), vehicle: Klucel (hydroxypropylcellulose) (HPC)): 101 % of control | T/C (dose: 200.0 mg/kg/injection, schedule: Q04DX002 (ip), vehicle: Klucel (hydroxypropylcellulose) (HPC)): 101 % of control | T/C (dose: 400.0 mg/kg/injection, schedule: Q04DX002 (ip), vehicle: Klucel (hydroxypropylcellulose) (HPC)): 101 % of control

CC1(CO)C(O)CCC2(C)C1CCC1CC3CC12CCC3(O)CO (centres undefined)
T/C (dose: 25.0 mg/kg/injection, schedule: Q01DX009 (ip), vehicle: saline with Tween-80): 167 % of control | T/C (dose: 50.0 mg/kg/injection, schedule: Q04DX003 (oral), vehicle: saline with Tween-80): 105 % of control and 106 % of control and 113 % of control | T/C (dose: 100.0 mg/kg/injection, schedule: Q04DX003 (oral), vehicle: saline with Tween-80): 101 % of control and 119 % of control and 100 % of control | T/C (dose: 600.0 mg/kg/injection, schedule: Q04DX003 (ip), vehicle: saline with Tween-80): 100 % of control | T/C (dose: 1600.0 mg/kg/injection, schedule: Q04DX003 (oral), vehicle: saline with Tween-80): 106 % of control

CCCCCCCCCCCCCCCCS(=O)CC(O)COC(=O)c1ccc(C(=O)OCC(O)CS(=O)CCCCCCCCCCCCCCCC)cc1 (centres undefined)
T/C (dose: 12.5 mg/kg/injection, schedule: Q04DX002 (ip), vehicle: saline + alcohol): 109 % of control | T/C (dose: 25.0 mg/kg/injection, schedule: Q04DX002 (ip), vehicle: saline + alcohol): 100 % of control | T/C (dose: 50.0 mg/kg/injection, schedule: Q04DX002 (ip), vehicle: saline + alcohol): 91 % of control | T/C (dose: 100.0 mg/kg/injection, schedule: Q04DX002 (ip), vehicle: saline + alcohol): 91 % of control

CN(C1=NS(=O)(=O)N=C(N(C)c2ccccc2)O1)c1ccccc1
T/C (dose: 12.5 mg/kg/injection, schedule: Q04DX003 (ip), vehicle: Klucel (hydroxypropylcellulose) (HPC)): 96 % of control | T/C (dose: 25.0 mg/kg/injection, schedule: Q04DX003 (ip), vehicle: Klucel (hydroxypropylcellulose) (HPC)): 89 % of control | T/C (dose: 50.0 mg/kg/injection, schedule: Q04DX003 (ip), vehicle: Klucel (hydroxypropylcellulose) (HPC)): 95 % of control | T/C (dose: 200.0 mg/kg/injection, schedule: Q04DX003 (ip), vehicle: Klucel (hydroxypropylcellulose) (HPC)): 90 % of control

COc1cc([C@@H]2c3cc4c(cc3[C@@H](OC3OC5CO[C@@H](c6cccs6)OC5C(O)C3O)[C@H]3COC(=O)[C@H]23)OCO4)cc(OC)c1O (some centres undefined)
T/C (dose: 5.0 mg/kg/injection, schedule: Q03DX002 (ip), vehicle: other): 90 % of control | T/C (dose: 10.0 mg/kg/injection, schedule: Q03DX002 (ip), vehicle: other): 92 % of control | T/C (dose: 30.0 mg/kg/injection, schedule: Q03DX002 (ip), vehicle: other): 104 % of control
